Counter-ions that a name gives are not always drawn.
Key:
[1] = system: normotensive Wistar rats; test: Invasive blood pressure measurement in anesthetized rats, i.v. administration; type: in vivo, rat
Method: Male Wistar rats with a body weight (BW) of 300-450 g were used as experimental animals. The rats are anesthetized immediately before the experiment with 50 mg/kg pentobarbital Na intraperitoneally (i.p.) or 70 mg/kg inactin i.v. PE tubes are tied into the carotid artery and femoral vein.
(§1) To maintain the blood pressure and to prevent formation of thrombi in the PE tubes of the blood vessels, each hour 2.5 ml of heparinized 0.9% strength NaCl solution are infused through the femoral vein and 1.2 ml through the carotid artery.
The arterial blood pressure is measured invasively using a PONEMAH hemodynamic analyzer (HSE, March, Germany). Via the tube in the carotid artery, the arterial blood pressure is mechanoelectrically converted in a Statham transducer (ISOTEC), amplified in a Plugsys (DBA module, type 660), digitized in an A/D converter and input into the PC memory over defined time intervals. The values in the memory are then treated with an adapted algorithm in order to establish the blood pressure parameters to be calculated for heart rate, systolic, diastolic and mean blood pressure.
(§2) The ergoline derivatives are administered i.v. through the femoral vein as 5 percent EtOH/NaCl (0.9%) solution, 1 ml/kg in a dosage of 0.5 mg/kg test substance.

[2] = system: normotensive Wistar rats after pretreatment with Ecolid; test: Blood pressure testing after blockade of autonomic nerve tracts with Ecolid; type: in vivo, rat; details: Table 2; for Effect pressure/duration: duration: assessment class of duration; for Effect pressure/duration: duration / Effect pressure/duration: pressure: after Ecolid; for Effect pressure/duration: pressure: assessment class of pressure fall; for Heart rate: change shown as arrow; for Diastol. pressure / Mean pressure / Systol. pressure: effect (fall) on arterial blood pressure, Wistar rats pretreated with Ecolid 0.5 mg/kg i.v., test substance 0.5 mg/kg i.v.
Text: Ecolid is a ganglionic blocker which competitively blocks the postsynaptic cholinergic (nicotinergic) receptors in the autonomic ganglia. This interrupts neurotransmission in the ganglia in both the para-sympathetic and sympathetic regions of the autonomic nervous system. The consequence thereof is, inter alia, a fall in blood pressure. It is possible in this way to differentiate central and peripheral (i.e. direct points of action on the smooth muscles) effects.
The experimental animals used were male Wistar rats with a BW of 300-450 g. The rats are anesthetized immediately before the experiment with 70 mg/kg inactin i.v. PE tubes are tied into the carotid artery and femoral vein.
as §1
Before testing the ergoline derivatives, the experimental animals were treated with Ecolid (dose: 0.5 mg/kg, i.v.).
as §2
The time stated in the table corresponds to the period between administration of Ecolid and injection of the test substances.

[3] = assessment class of duration, 0.5 mg/kg i.v., Table 1.1
[4] = assessment class of pressure fall, 0.5 mg/kg i.v., Table 1.1
[5] = change shown as arrow, Wistar rats, 0.5 mg/kg i.v., Table 1.1
[6] = duration of blood pressure effect, Wistar rats, 0.5 mg/kg i.v., Table 1.1
[7] = effect (fall) on arterial blood pressure, anesthetized Wistar rats, 0.5 mg/kg i.v., Table 1.1
[8] = rats pretreated with Ecolid, 0.5 mg/kg i.v.
[9] = assessment class of duration, 0.5 mg/kg i.v., Table 1.2
[10] = assessment class of pressure fall, 0.5 mg/kg i.v., Table 1.2
[11] = change shown as arrow, Wistar rats, 0.5 mg/kg i.v., Table 1.2
[12] = duration of blood pressure effect, 0.5 mg/kg i.v., Table 1.2
[13] = effect (fall) on arterial blood pressure, Wistar rats, 0.5 mg/kg i.v., Table 1.2

| SMILES | Effect pressure/duration: duration [1, 3] | Effect pressure/duration: pressure [1, 4] | Heart rate [1, 5] | Duration [1, 6] | Diastol. pressure [1, 7] | Mean pressure [1, 7] | Systol. pressure [1, 7] | also measured |
| --- | --- | --- | --- | --- | --- | --- | --- | --- |
| CN1CC(CNC(=O)c2ccc(C(=O)NCC3CCCC(CN)C3)cc2)CC2c3cccc4[nH]cc(c34)CC21.O=C(O)C(F)(F)F.O=C(O)C(F)(F)F (mixture of isomers) [Substance 9703127] | ↓↓/↓↓ (up to 30 min) | ↓↓/↓↓ (to 30%) | → | >25 min | 29.0% | 27.2% | 24.8% |  |
| CN1CC(CNC(=O)C2CCC(C(=O)NCc3cccc(CN)c3)CC2)CC2c3cccc4[nH]cc(c34)CC21.O=C(O)C(F)(F)F.O=C(O)C(F)(F)F (mixture of isomers) [Substance 9703131] | ↓↓↓/↓↓↓ (>30 min) | ↓↓↓/↓↓↓ (>30%) | → | >240 min | 55.2% | 51.6% | 47.5% | Effect pressure/duration: duration ([2]; 0.5 mg/kg i.v.): ↓↓↓/↓↓↓ (> 30 min); Effect pressure/duration: pressure ([2]; 0.5 mg/kg i.v.): ↓↓↓/↓↓↓ (> 30%); Heart rate [2, 8]: →; Diastol. pressure [2]: 40.4%; Mean pressure [2]: 32.4%; Systol. pressure [2]: 32.9%; Duration [2, 8]: >60 min |
| CN1CC(CNC(=O)C2CCC(C(=O)NCCCN3CCN(CCCN)CC3)CC2)CC2c3cccc4[nH]cc(c34)CC21.O=C(O)C(F)(F)F.O=C(O)C(F)(F)F.O=C(O)C(F)(F)F.O=C(O)C(F)(F)F (mixture of isomers) [Substance 9703133] |  |  |  |  |  |  |  | Diastol. pressure ([1]; rat, in vivo, iv, 0.5 mg/kg): 50.0%; Duration ([1]; rat, in vivo, iv, 0.5 mg/kg): ca 60 min; Effect pressure/duration: duration ([1]; rat, in vivo, iv, 0.5 mg/kg): ↓↓↓/↓↓↓ (key: (↓): < 5 min; ↓: up to 10 min; ↓↓: up to 30 min; ↓↓↓: >30 min); Effect pressure/duration: pressure ([1]; rat, in vivo, iv, 0.5 mg/kg): ↓↓↓/↓↓↓ (key: →: no effect to 5%; (↓): to 10%; ↓: to 20%; ↓↓: to 30%; ↓↓↓: >30%); Heart rate ([1]; rat, in vivo, iv, 0.5 mg/kg): ↑; Mean pressure ([1]; rat, in vivo, iv, 0.5 mg/kg): 45.4%; Systol. pressure ([1]; rat, in vivo, iv, 0.5 mg/kg): 48.4% |
| CN1C[C@H](CN)C[C@@H]2c3cccc4[nH]cc(c34)C[C@H]21 [8β-Aminomethyl-6-methylergoline, reference compound] | ↓↓ (up to 30 min) | ↓ (to 20%) | → | 30 min | 14.3% | 15.3% | 16.4% |  |
| CC(C)[C@H]1C(=O)N2CCC[C@H]2[C@]2(O)O[C@](NC(=O)[C@@H]3C[C@@H]4c5cccc6[nH]cc(c56)C[C@H]4N(C)C3)(C(C)C)C(=O)N12 [Dihydroergocornine, reference compound] | (↓) (< 5 min) | ’ | → | 3 min | 4.3% | 3.3% | 5.0% |  |
| CN1C[C@H](C(N)=O)CC2c3cccc4[nH]cc(c34)C[C@H]21 (some centres unmarked) [Dihydrolysergamide, reference compound] | (↓)/(↓) (< 5 min) | (↓)/(↓) (to 10%) | → | 5 min | 7.1% | 8.0% | 8.0% |  |
| C[N+](C)(C)CC[N+]1(C)Cc2c(Cl)c(Cl)c(Cl)c(Cl)c2C1.[Cl-].[Cl-] [Ecolid, reference compound] |  |  |  |  |  |  |  | Effect pressure/duration: duration ([2]; 0.5 mg/kg i.v.): ↓↓↓/↓↓↓ (> 30 min); Effect pressure/duration: pressure ([2]; 0.5 mg/kg i.v.): ↓↓↓/↓↓↓ (> 30%); Heart rate [2, 8]: →; Diastol. pressure [2]: 54.7%; Mean pressure [2]: 50.4%; Systol. pressure [2]: 52.6% |
| Nc1cc(N2CCCCC2)nc(N)[n+]1[O-] [Minoxidil, reference compound] | ↓/↓ (up to 10 min) | ↓/↓ (to 20%) | → | ca 10 min | 8.1% | 7.1% | 6.6% |  |
| CN1CC(CNC(=O)c2ccc(C(=O)NC3CCC(N)CC3)cc2)CC2c3cccc4[nH]cc(c34)CC21.O=C(O)C(F)(F)F.O=C(O)C(F)(F)F (centres unmarked) [Substance 9703112] | ↓↓/↓↓ (up to 30 min) | ↓↓/↓↓ (to 30%) | → | 18 min | 31.7% | 29.2% | 25.2% |  |
| CN1CC(CNC(=O)CCCCC(=O)NC2CCC(N)CC2)CC2c3cccc4[nH]cc(c34)CC21.O=C(O)C(F)(F)F.O=C(O)C(F)(F)F (centres unmarked) [Substance 9703114] |  |  |  |  |  |  |  | Diastol. pressure ([1]; rat, in vivo, iv, 0.5 mg/kg): 20.7%; Duration ([1]; rat, in vivo, iv, 0.5 mg/kg): 40 min; Effect pressure/duration: duration ([1]; rat, in vivo, iv, 0.5 mg/kg): ↓↓/↓↓↓ (key: (↓): < 5 min; ↓: up to 10 min; ↓↓: up to 30 min; ↓↓↓: >30 min); Effect pressure/duration: pressure ([1]; rat, in vivo, iv, 0.5 mg/kg): ↓↓/↓↓↓ (key: →: no effect to 5%; (↓): to 10%; ↓: to 20%; ↓↓: to 30%; ↓↓↓: >30%); Heart rate ([1]; rat, in vivo, iv, 0.5 mg/kg): →; Mean pressure ([1]; rat, in vivo, iv, 0.5 mg/kg): 20.3%; Systol. pressure ([1]; rat, in vivo, iv, 0.5 mg/kg): 18.8% |
| CN1CC(CNC(=O)CCCCC(=O)NCc2cccc(CN)c2)CC2c3cccc4[nH]cc(c34)CC21.O=C(O)C(F)(F)F.O=C(O)C(F)(F)F (centres unmarked) [Substance 9703123] |  |  |  |  |  |  |  | Diastol. pressure ([1]; rat, in vivo, iv, 0.5 mg/kg): 44.3%; Duration ([1]; rat, in vivo, iv, 0.5 mg/kg): 7 min; Effect pressure/duration: duration ([1]; rat, in vivo, iv, 0.5 mg/kg): ↓↓↓/↓ (key: (↓): < 5 min; ↓: up to 10 min; ↓↓: up to 30 min; ↓↓↓: >30 min); Effect pressure/duration: pressure ([1]; rat, in vivo, iv, 0.5 mg/kg): ↓↓↓/↓ (key: →: no effect to 5%; (↓): to 10%; ↓: to 20%; ↓↓: to 30%; ↓↓↓: >30%); Heart rate ([1]; rat, in vivo, iv, 0.5 mg/kg): →; Mean pressure ([1]; rat, in vivo, iv, 0.5 mg/kg): 43.4%; Systol. pressure ([1]; rat, in vivo, iv, 0.5 mg/kg): 38.0% |
| CN1CC(CNC(=O)c2ccc(C(=O)NCCCN3CCN(CCCN)CC3)cc2)CC2c3cccc4[nH]cc(c34)CC21.O=C(O)C(F)(F)F.O=C(O)C(F)(F)F.O=C(O)C(F)(F)F.O=C(O)C(F)(F)F (centres unmarked) [Substance 9703125] |  |  |  |  |  |  |  | Diastol. pressure ([1]; rat, in vivo, iv, 0.5 mg/kg): 14.0%; Duration ([1]; rat, in vivo, iv, 0.5 mg/kg): 90 min; Effect pressure/duration: duration ([1]; rat, in vivo, iv, 0.5 mg/kg): ↓/↓↓↓ (key: (↓): < 5 min; ↓: up to 10 min; ↓↓: up to 30 min; ↓↓↓: >30 min); Effect pressure/duration: pressure ([1]; rat, in vivo, iv, 0.5 mg/kg): ↓/↓↓↓ (key: →: no effect to 5%; (↓): to 10%; ↓: to 20%; ↓↓: to 30%; ↓↓↓: >30%); Heart rate ([1]; rat, in vivo, iv, 0.5 mg/kg): →; Mean pressure ([1]; rat, in vivo, iv, 0.5 mg/kg): 13.7%; Systol. pressure ([1]; rat, in vivo, iv, 0.5 mg/kg): 13.1% |
| Cc1nc(C)c(C(=O)NC2CCC(N)CC2)cc1C(=O)NCC1CC2c3cccc4[nH]cc(c34)CC2N(C)C1.O=C(O)C(F)(F)F.O=C(O)C(F)(F)F (centres unmarked) [Substance 9703137] | ↓↓↓/↓↓↓ (>30 min) | ↓↓↓/↓↓↓ (>30%) | → | ca 95 min | 64.8% | 60.2% | 56.5% |  |
| CN1CC(CNC(=O)c2ccc(SSc3ccc(C(=O)NC4CCC(N)CC4)cn3)nc2)CC2c3cccc4[nH]cc(c34)CC21.O=C(O)C(F)(F)F.O=C(O)C(F)(F)F (centres unmarked) [Substance 9703155] |  |  |  |  |  |  |  | Effect pressure/duration: duration [1, 9]: ↓↓↓ (> 30 min); Effect pressure/duration: pressure [1, 10]: ↓↓ (to 30%); Heart rate [1, 11]: →; Duration [1, 12]: ca 60 min; Diastol. pressure [1, 13]: 25.9%; Mean pressure [1, 13]: 26.9%; Systol. pressure [1, 13]: 24.7% |
| CN1CC(CNC(=O)c2c(F)c(F)c(F)c(F)c2C(=O)NC2CCC(N)CC2)CC2c3cccc4[nH]cc(c34)CC21.O=C(O)C(F)(F)F.O=C(O)C(F)(F)F (centres unmarked) [Substance 9703156] |  |  |  |  |  |  |  | Effect pressure/duration: duration [1, 9]: ↓↓ (up to 30 min); Effect pressure/duration: pressure [1, 10]: ↓↓↓ (> 30%); Heart rate [1, 11]: →; Duration [1, 12]: 13 min; Diastol. pressure [1, 13]: 43.4%; Mean pressure [1, 13]: 38.6%; Systol. pressure [1, 13]: 33.4% |
| CN1CC(CNC(=O)C(F)(F)C(F)(F)C(=O)NC2CCC(N)CC2)CC2c3cccc4[nH]cc(c34)CC21.O=C(O)C(F)(F)F.O=C(O)C(F)(F)F (centres unmarked) [Substance 9703157] |  |  |  |  |  |  |  | Effect pressure/duration: duration [1, 9]: ↓↓ (up to 30 min); Effect pressure/duration: pressure [1, 10]: ↓↓↓ (> 30%); Heart rate [1, 11]: →; Duration [1, 12]: 30 min; Diastol. pressure [1, 13]: 49.6%; Mean pressure [1, 13]: 48.8%; Systol. pressure [1, 13]: 46.6% |
| O=C(O)C(F)(F)F [TFA (equimolar), trifluoroacetic acid, reference compound] | (↓)/(↓) (< 5 min) | (↓)/(↓) (to 10%) | → | >1 min | 5.1% | 4.6% | 4.3% |  |

— US6358967B1, “Ergoline amine derivatives with blood pressure lowering effect” (priority 1998, dated 2002)
